Data published in patent US5817670A, “Naphthyridine derivatives and pharmaceutical compositions thereof” (Yamanouchi Pharmaceutical Co., Ltd., priority 1994, dated 1998).
pIC50: −log10 of the molar value. Where a name gives a salt, the structure may show the parent alone.

Assays:
[1] = molecular target: type IV phosphodiesterase; experiment: Phosphodiesterase inhibition activity (in vitro), Type IV; format: biochemical, human (peripheral blood of a healthy person)
Experimental: (1) Method for measuring type IV phosphodiesterase inhibition activity
The following assay was used for the evaluation of the capability of the compounds of the present invention to inhibit type IV phosphodiesterase.
1) Physiological saline (200 ml) supplemented with dextran (3%) was added to 500 ml of heparinized peripheral blood of a healthy person and incubated at 37° C. for 40 minutes to effect precipitation of erythrocytes. The supernatant after precipitation of erythrocytes was recovered and centrifuged once, and the resulting precipitate was suspended in buffer A (140 mM NaCl, 5 mM KCl, 5 mM glucose and 10 mM HEPES, pH 7.4), overlaid on a solution for density gradient centrifugation use (Ficoll solution) and then centrifuged at room temperature for 40 minutes at 450×g, thereby separating monocyte fraction and granulocyte fraction. The granulocyte fraction was washed once with buffer B (140 mM NaCl, 5 mM KCl, 1 mM CaCl2, 1 mM MgCl2, 5 mM glucose and 10 mM HEPES, pH 7.4) and suspended in buffer C (20 mM Bis-Tris, 5 mM dithioerythritol, 2 mM EGTA and 50 mM sodium acetate, pH 6.5) containing a protease inhibitor (50 μM phenyl-methyl-sulfonyl-fluoride, 5 μM pepstatin A, 40 μM leupeptin, 20 μM aprotinin or 2 mM benzamidine) and then the cells were disrupted using polytron and sonicator and subjected to ultracentrifugation (4° C., 100,000×g, 60 minutes) to give a soluble fraction.
2) The thus obtained soluble fraction was applied to a column of 1.6×10 cm packed with Q Sepharose which had been equilibrated with buffer C. Next, the column was washed with 300 ml of buffer C to remove non-absorbed protein. Phosphodiesterase was eluted with 200 ml of buffer C having 0.05 to 1.25M linear gradient of sodium acetate to collect 40 fractions each containing 5.0 ml eluate. Each fraction was checked for cAMP- and cGMP-metabolizing phosphodiesterase activities. Fractions having no cGMP- but cAMP-metabolizing activity and showing disappearance of the metabolizing activity by 10 μM rolipram (a type IV phosphodiesterase selective inhibitor) were collected to be used as a stock solution for the examination of type IV phosphodiesterase inhibition activity.
3) A predetermined amount of each compound to be tested was subjected to 10 minutes of reaction at 30° C. in a reaction mixture containing 40 mM Tris-HCl (pH 8.0), 5 mM MgCl2, 4 mM 2-mercaptoethanol, 0.3 μM cilostamide (a type III phosphodiesterase selective inhibitor), 1 μM cAMP, 10 nM ^3 H-cAMP and the type IV phosphodiesterase stock solution. The reaction solution was boiled at 90° C. for 1 minute, ice-cooled, mixed with 1 unit of 5'-nucleotidase and then subjected to 10 minutes of reaction at 30° C., and the reaction was stopped by the addition of 1 ml of methanol. The reaction solution was passed through a Dowex 1×8 column to adsorb un-hydrolyzed material and then the radioactivity was measured.
4) Concentration of each compound to be tested which inhibits 50% of the metabolic activity of type IV phosphodiesterase was calculated and expressed as IC50. (2) Method for measuring the activity to inhibit various phosphodiesterase isozymes
Results: The inhibition activity (IC50) value for h type of phosphodiesterase (Type I, Type II, Type III, e IV, and Type V) is shown in the following table.

[2] = molecular target: T1, type V phosphodiesterase (Homo sapiens, UniProt O76074); experiment: Phosphodiesterase inhibition activity (in vitro), Type V; format: biochemical, human (peripheral blood of a healthy person); conditions: 1 μM cGMP
T1 construct: from tissue; host or cells: human peripheral blood granulocyte fraction, soluble, Q Sepharose
Description: (A) In order to evaluate selectivity of the compounds of the present invention for type IV phosphodiesterase, types I, II, III and V phosphodiesterase isozymes were purified in the following manner.
2) Solutions containing various phosphodiesterase isozymes were obtained from the thus obtained soluble fraction in the following manner. The thus, obtained soluble fraction was applied to a column of 1.6×10.0 cm packed with Q Sepharose which had been equilibrated with buffer A. Next, said column was washed with 300 ml of buffer A to remove non-absorbed protein. Phosphodiesterase was eluted with 200 ml of buffer A having 0.05 to 1.25M linear gradient of sodium acetate to collect about 40 fractions each containing 5.0 ml eluate. Each fraction was checked for cAMP- and cGMP-metabolizing phosphodiesterase activities. Of these fractions, a fraction having only cAMP-metabolizing activity and showing disappearance of the metabolizing activity by 0.1 μM cilostamide (a type III phosphodiesterase selective inhibitor) was used as the type III phosphodiesterase. […] These fractions were separately collected to be used as phosphodiesterase (types I, II and III) stock solutions for the examination of selectivity. p1 3) A solution containing type V phosphodiesterase was prepared from peripheral blood of a healthy person in the following manner. A 200 ml portion of physiological saline supplemented with dextran (3%) was added to 500 ml of heparinized peripheral blood and incubated at 37° C. for 40 minutes to effect precipitation of erythrocytes. The supernatant fluid after precipitation of erythrocytes was recovered and centrifuged once, and the resulting precipitate was suspended in buffer B (140 mM NaCl, 5 mM KCl, 5 mm glucose and 10 mM HEPES, pH 7.4), overlaid on a solution for density gradient centrifugation use (Ficoll solution) and then centrifuged at room temperature for 40 minutes at 450×g, thereby separating monocyte fraction and granulocyte fraction. The granulocyte fraction was washed once with buffer C (140 mM NaCl, 5 mM KCl, 1 mM CaCl2, 1 mM MgCl2, 5 mM glucose and 10 mM HEPES, pH 7.4) and suspended in buffer D (20 mM Bis-Tris, 5 mM dithioerythritol, 2 mM EGTA and 50 mM sodium acetate, pH 6.5) containing a protease inhibitor (40 μM leupeptin, 5 μM pepstatin A, 20 μM aprotinin, 50 μM phenyl-methyl-sulfonyl-fluoride or 2 mM benzamidine) and then the cells were disrupted using polytron and sonicator and subjected to ultracentrifugation (4° C., 100,000×g, 60 minutes) to give a soluble fraction.
4) The thus obtained soluble fraction was applied to a column of 1.6×10 cm packed with Q Sepharose which had been equilibrated with buffer D. Next, the column was washed with 120 ml of buffer D to remove non-absorbed protein. Phosphodiesterase was eluted with 300 ml of buffer D having 0.05 to 1.25M linear gradient of sodium acetate to collect fractions each containing 5.0 ml eluate. Each fraction was checked for cAMP- and cGMP-metabolizing phosphodiesterase activities. Fractions having only cGMP metabolizing activity were collected to be used as the type V phosphodiesterase stock solution.
(B) Inhibitory activities were measured using the thus obtained stock solutions of various phosphodiesterase isozymes.
1) A predetermined amount of each compound to be tested was subjected to 10 minutes of reaction at 30° C. in a reaction mixture containing 40 mM Tris-HCl (pH 8.0), 5 mM MgCl2, 4 mM 2-mercaptoethanol, 10 μM rolipram (a type IV phosphodiesterase selective inhibitor), 1 μM cAMP, 10 nM ^3 H-cAMP (in the case of type V phosphodiesterase, 1 μM cAMP and 10 nM ^3 H-cAMP are replaced by 1 μM cGMP and 100 nM ^3 H-cGMP) and each of the isozyme stock solutions. After completion of the reaction, the reaction mixture was boiled at 90° C. for 1 minute, ice-cooled, mixed with 1 unit of 5'-nucleotidase and then subjected to 10 minutes of reaction at 30° C., and the reaction was stopped by adding 1 ml of methanol. […]

Compound	pIC50 [1]	pIC50 [2]
CCn1c(=O)cc(-c2cccc(Cl)c2)c2cccnc21 [Example 15, 4-(3-Chlorophenyl)-1-ethyl-1,8-naphthyridin-2(1H)-one]	4.23	4.39
Cc1cc(C)c2c(-c3cccc(Cl)c3)cc(=O)n(C)c2n1 [Example 24, 4-(3-chlorophenyl)-1,5,7-trimethyl-1,8-naphthyridin-2(1H)-one]	4.01	5.01
CCc1cc(C)c2c(-c3cccc(Cl)c3)cc(=O)n(C)c2n1 [Example 27, 4-(3-Chlorophenyl)-7-ethyl-1,5-dimethyl-1,8-naphthyridin-2(1H)-one]	< 4.52	4.55
CCn1c(=O)cc(-c2cccc(Cl)c2)c2c(C)cc(C)nc21 [Example 29, 4-(3-Chlorophenyl)-1-ethyl-5,7-dimethyl-1,8-naphthyridin-2(1H)-one]	< 4.52	4.61
CCc1cc(C)c2c(-c3cccc(Cl)c3)cc(=O)n(C3CC3)c2n1 [Example 35, 4-(3-Chlorophenyl)-1-cyclopropyl-7-ethyl-5-methyl-1,8-naphthyridin-2(1H)-on]	4.66	4.38
CCc1cc(C)c2c(-c3cccc(Cl)c3)cc(=S)n(C)c2n1 [Example 43, 4-(3-chlorophenyl)-7-ethyl-1,5-dimethyl-1,8-naphthyridine-2(1H)-thione]	< 4.52	5.32
CCn1c(=O)cc(C2CCCCC2)c2cccnc21 [Example 46, 4-cyclohexyl-1-ethyl-1,8-naphthyridin-2(1H)-one 0.45 hydrochloride 0.25 hydrate]	< 4.52	4.06
CCc1cc(C)c2c(C3CCCCC3)cc(=O)n(CC)c2n1 [Example 49, 4-cyclohexyl-1,7-diethyl-5-methyl-1,8-naphthyridin-2(1H)-one]	4.52	5.41

Now from value to compound:

pIC50 [1]	pIC50 [2]	Compound
4.07	4.56	CCc1cc(C)c2c(-c3ccccc3)cc(=O)n(C)c2n1 [Example 26, 7-Ethyl-1,5-dimethyl-4-phenyl-1,8-naphthyridin-2(1H)-one]
4.51	5.06	CCn1c(=O)cc(-c2cccc(Br)c2)c2c(C)cc(C)nc21 [Example 30, 4-(3-Bromophenyl)-1-ethyl-5,7-dimethyl-1,8-naphthyridin-2(1H)-one]
< 4.52	< 4.52	CCc1cc(C)c2c(-c3cccc(Br)c3)cc(=O)n(CC)c2n1 [Example 31, 4-(3-bromophenyl)-1,7-diethyl-5-methyl-1,8-naphthyridin-2(1H)-one]
< 4.52	5.08	CCCn1c(=O)cc(-c2cccc(Br)c2)c2c(C)cc(CC)nc21 [Example 33, 4-(3-Bromophenyl)-7-ethyl-5-methyl-1-propyl-1,8-naphthyridin-2(1H)-one]
< 4.52	4.71	CCn1c(=O)cc(-c2ccccc2)c2c(C)cc(C)nc21 [Example 38, 1-Ethyl-5,7-dimethyl-4-phenyl-1,8-naphthyridin-2(1H)-one]
4.50	4.84	CCc1cc(C)c2c(-c3ccccc3)cc(=O)n(CC)c2n1 [Example 40, 1,7-Diethyl-5-methyl-4-phenyl-1,8-naphthyridin-2(1H)-one]
